This note sets out measurements from US12612395B2, “Rocaglate derivatives and uses thereof” (TRUSTEES OF BOSTON UNIVERSITY, priority 2023, dated 2026).

Read-outs that look alike come from different tables or passages of the source.

As a reminder, the EC50 is the midpoint of the concentration-response curve.

The subject of one series is GBM0308 non-CSCs. Briefly: Dose-response killing of GBM non-CSCs (PI/Hoechst, Celigo cytometer). It counts as cell-based. The note with it: for Emax: Homo sapiens; for Emax / Non-CSCs Max. observed efficacy (% dead cells): 72 h. An excerpt:
(§1) The inventors first evaluated a cohort of seven rocaglate translation inhibitors (1, 3-7, and 9, FIG. 1A and Table 1, compounds 2 and 8 were not tested due to unavailability). To assay for compounds that selectively affect GBM CSCs, the inventors employed the patient-derived tumor-initiating cell (TIC) cell line […] that forms neurospheres (consisting exclusively of tumor-initiating cells or CSCs) when cultured in neurobasal (NBE) medium. Upon exposure to serum and growth factor withdrawal, however, the cell line differentiates, acquires a flattened morphology, and forms a non-CSC population.^20 Thus, compounds can be tested in parallel to assess their effect on GBM CSCs vs. GBM non-CSCs as separate populations with a clean and robust response. This approach has been previously used to perform RNAi-based genetic screens to identify modulators of CSCs.^20 In this study, GBM0308 cells, cultured in stem cell conditions to form CSCs or in medium containing serum to induce differentiation into a non-CSC population, were treated in parallel with compounds at varying doses. Three days post-treatment, propidium iodide (PI) and Hoechst staining were performed and quantified using a Celigo image cytometer. Hoechst dye stained all […] nucleated cells, while PI exclusively stained dead cells. Cell viability and the percentage of cell death were then determined.
(§2) Cell Culture: Glioblastoma stem cell lines GBM0308, BT145, and BT112 were cultured in neurobasal (NBE medium) containing N-2 and B-27 supplements, EGF, bFGF, L-glutamine, and Penicillin-Streptomycin), as described previously.^19 Adherent GBM cells were cultured in serum-containing DMEM media (Invitrogen) supplemented with 10% fetal bovine serum (Corning Cellgro™). Cells were incubated at 37° C. and 5% CO2 to allow neurosphere formation. For seeding and subculturing, the neurospheres were gently trypsinized with 0.025% trypsin to form a single-cell suspension.
(§3) Dose-Response Testing in GBM Cells: Briefly, on day 1, cells were seeded in triplicate. For CSCs, 1500 cells/well were plated in a low attachment 96-well plate with NBE media and incubated for 3 days at 37° C. and 5% CO2 to allow the formation of neurospheres. For non-CSCs, 3000 cells/well were plated in a 96-well plate with DMEM media supplemented with 10% FBS. Similarly, the assay plates were also incubated for the same duration. Compound treatments started on day 4. Each compound was resuspended in DMSO and then diluted to different concentrations in media to a final concentration of DMSO less than 1%. The compounds were added at concentrations of 10, 3.3, 1.11, 0.37, 0.12, 0.041, 0.013, and 0.004 µM, respectively. DMSO-treated cells served as a control. After 72 h incubation with the compounds, fluorescent stains, propidium iodide, and Hoechst 33342 (Life Technologies, Carlsbad, CA), were used to stain the GBM cells to determine cell viability. A staining solution in 1×PBS was prepared by mixing PI and Hoechst 33342 to working concentrations of 2.5 μM and 20 μM, respectively. 20 μL of this staining solution was added per well, and plates were incubated at 37° C. and 5% CO2 for 60 min. After incubation, plates were read by Celigo imaging cytometer using an inbuilt Celigo application; Cell Viability (Dead+Total). For the viability measurement, the total number of neurospheres/cells and dead neurospheres/cells in each well were counted by the cytometer. The percentage of PI+ cells was normalized to DMSO and plotted against the drug concentration to calculate the EC50 with a four-parameter, variable-slope dose-response curve with an upper constraint of <100% dead cells and a lower constraint of =0% dead cells (GraphPad Prism v.10.0.0). For all dose response experiments, the experimental maximal efficacy (maximum observed % cell death) is reported. Relative EC50 values are reported for all compounds killing >50% of cells.

A further series has as its system GBM0308 CSCs. Description: Dose-response killing of GBM CSCs (PI/Hoechst, Celigo cytometer). It counts as cell-based.
Source text: as §1, §2, §3

[1] abbreviates: Table 7, cell line not given, read-out: Non-CSC Max. observed efficacy (% dead cells).
The mark [2] stands for this setting: Homo sapiens, 72 h, Table 7, cell line not given, read-out: CSC Max. observed efficacy (% dead cells).
[3] abbreviates: Homo sapiens, Table 7, cell line not given, read-out: CSC EC50.
Setting [4] is: Table 1, GBM0308 non-CSCs, up to 10 μM.
The mark [5] stands for this setting: Table 1, GBM0308 CSCs, 72 h, up to 10 μM.
Setting [6] is: Table 1, GBM0308 CSCs, 72 h treatment, relative EC50, given for compounds causing at least 50% cell death, read-out: CSCs EC50.
The mark [7] stands for this setting: Table 2, GBM0308 non-CSCs, highest tested concentration 10 μM.
Setting [8] is: Table 2, GBM0308 CSCs, 72 h, highest tested concentration 10 μM.
The mark [9] stands for this setting: Table 2, GBM0308 CSCs, 72 h treatment, relative EC50, read-out: CSCs EC50.
[10] abbreviates: read-out: Non-CSCs Max. observed efficacy (% dead cells), Table 2, GBM0308 non-CSCs, highest tested concentration 10 μM.
The mark [11] stands for this setting: Homo sapiens, 72 h, read-out: CSCs EC50 (μM), Table 2, GBM0308 CSCs, 72 h treatment, relative EC50.
[12] abbreviates: Homo sapiens, 72 h, read-out: CSCs Max. observed efficacy (% dead cells), Table 2, GBM0308 CSCs, 72 h, highest tested concentration 10 μM.
Where [13] appears, read: read-out: CSCs EC50, Table 2, GBM0308 CSCs, 72 h treatment, relative EC50.
Setting [14] is: read-out: Non-CSC Max. observed efficacy (% dead cells), Table 7, cell line not given.
Where [15] appears, read: Homo sapiens, 72 h, read-out: CSC Max. observed efficacy (% dead cells), Table 7, cell line not given.
Setting [16] is: Homo sapiens, read-out: CSC EC50 (μM), Table 7, cell line not given.

Consider `COc1cc(OC)c2c(c1)O[C@@]1(c3ccc(Br)cc3)[C@H](c3ccccc3)[C@@H](C(=O)NS(=O)(=O)N(C)C)[C@@H](O)[C@@]21O` (racemic) [BUCMD747 (rac), (1R,2R,3S,3aR,8bS)-3a-(4-bromophenyl)-N-(N,N-dimethylsulfamoyl)-1,8b-dihydroxy-6,8-dimethoxy-3-phenyl-2,3,3a,8b-tetrahydro-1H-cyclopenta[b]benzofuran-2-carboxamide], for which the Emax turned out to be 27% in the series with GBM0308 non-CSCs (setting [1]) and 89% in the series with GBM0308 CSCs (setting [2]). Besides, the EC50 in the series on GBM0308 CSCs (setting [3]) is 0.453 µM.

On to `COc1ccc([C@@]23Oc4cc(OC)cc(OC)c4[C@]2(O)[C@H](O)[C@H](C(=O)N(C)OC)[C@H]3c2ccccc2)cc1` (racemic) [rac-6, rohinitib, reference compound], for which the “Non-CSCs Max. observed efficacy (% dead cells)” value in the series on GBM0308 non-CSCs (setting [4]) turned out to be 25%. The “CSCs Max. observed efficacy (% dead cells)” value in the series with GBM0308 CSCs (setting [5]) was 81%. Moreover, the EC50 in the series with GBM0308 CSCs (setting [6]) was found to be 0.922 µM.

With `COc1ccc([C@@]23Oc4cc(OC)cc(OC)c4[C@]2(O)[C@H](O)[C@H](C(=O)O)[C@H]3c2ccccc2)cc1` [(+)-10, rocaglaic acid], in the series on GBM0308 non-CSCs (GBM0308 non-CSCs), the “cytotoxic activity against non-CSCs, in words” value is “limited activity”. Further, the “Non-CSCs Max. observed efficacy (% dead cells)” value in the series with GBM0308 non-CSCs (setting [7]) worked out at 30%. For the same molecule, in the series with GBM0308 CSCs (GBM0308 CSCs), the “cytotoxic activity against CSCs, in words” value was “limited activity”. Moreover, the “CSCs Max. observed efficacy (% dead cells)” value in the series on GBM0308 CSCs (setting [8]) worked out at 58%. Also, the EC50 in the series on GBM0308 CSCs (setting [9]) turned out to be 7.08 µM.

Turning to `COC(=O)[C@H]1[C@@H](O)[C@@]2(O)c3c(OC)cc(OC)cc3O[C@@]2(c2ccc(Br)cc2)[C@@H]1c1ccccc1` [(−)-9, reference compound], the “Non-CSCs Max. observed efficacy (% dead cells)” value in the series on GBM0308 non-CSCs (setting [4]) is given as 25%. Also, in the series with GBM0308 CSCs (setting [5]), the “CSCs Max. observed efficacy (% dead cells)” value is 88%. The EC50 in the series on GBM0308 CSCs (setting [6]) turned out to be 0.151 µM.

Consider `COc1ccc([C@@]23Oc4cc(OC)cc(OC)c4[C@]2(O)[C@H](O)[C@H](C(=O)O)[C@H]3c2ccccc2)cc1` [(−)-10, rocaglaic acid], for which the “Non-CSCs Max. observed efficacy (% dead cells)” value in the series on GBM0308 non-CSCs (setting [7]) was determined as 27%. For the same molecule, the “CSCs Max. observed efficacy (% dead cells)” value in the series on GBM0308 CSCs (setting [8]) was 68%.

`COc1cc(OC)c2c(c1)O[C@@]1(c3ccc(Br)cc3)[C@H](c3ccccc3)[C@@H](C(=O)O)[C@@H](O)[C@@]21O` [(−)-11]: the “Non-CSCs Max. observed efficacy (% dead cells)” value with GBM0308 non-CSCs (setting [7]) was 25%. The “CSCs Max. observed efficacy (% dead cells)” value in the series on GBM0308 CSCs (setting [8]) stood at 92%. For the same molecule, the EC50 with GBM0308 CSCs (setting [9]) was determined as 0.121 µM.

On to `COc1ccc([C@@]23Oc4cc(OC)cc(OC)c4[C@]2(O)[C@H](O)[C@H](C(=O)NS(C)(=O)=O)[C@H]3c2ccccc2)cc1` [(−)-15, (1R,2R,3S,3aR,8bS)-1,8b-dihydroxy-6,8-dimethoxy-3a-(4-methoxyphenyl)-N-(methylsulfonyl)-3-phenyl-2,3,3a,8b-tetrahydro-1H-cyclopenta[b]benzofuran-2-carboxamide], for which the figures for the Emax in the series on GBM0308 non-CSCs (setting [10]) and in the series with GBM0308 CSCs (setting [12]) were 19% and 85%, respectively. The results for the half-maximal effective concentration (EC50) in the series on GBM0308 CSCs (setting [11]) and with GBM0308 CSCs (setting [13]) were 1 to 10 µM and 0.98 µM, respectively.

With `COc1ccc([C@@]23Oc4cc(OC)cc(OC)c4[C@]2(O)[C@H](O)[C@H](C(=O)NS(=O)(=O)N(C)C)[C@H]3c2ccccc2)cc1` [(−)-16, (1R,2R,3S,3aR,8bS)—N—(N,N-dimethylsulfamoyl)-1,8b-dihydroxy-6,8-dimethoxy-3a-(4-methoxyphenyl)-3-phenyl-2,3,3a,8b-tetrahydro-1H-cyclopenta[b]benzofuran-2-carboxamide], the Emax in the series with GBM0308 non-CSCs (setting [10]) was determined as 23%; in the series with GBM0308 CSCs (setting [12]), 76%. The EC50 in the series with GBM0308 CSCs (setting [11]) is 1 to 10 µM; in the series on GBM0308 CSCs (setting [13]), 1.73 µM.

In the case of `COc1cc(OC)c2c(c1)O[C@@]1(c3ccc(Br)cc3)[C@H](c3ccccc3)[C@@H](C(=O)NS(C)(=O)=O)[C@@H](O)[C@@]21O` [(−)-19, (1R,2R,3S,3aR,8bS)-3a-(4-bromophenyl)-1,8b-dihydroxy-6,8-dimethoxy-N-(methylsulfonyl)-3-phenyl-2,3,3a,8b-tetrahydro-1H-cyclopenta[b]benzofuran-2-carboxamide], the Emax with GBM0308 non-CSCs (setting [10]) stood at 20%; in the series on GBM0308 CSCs (setting [12]) it was 92%. Besides, the EC50 was 0.095 µM with GBM0308 CSCs (setting [11]) and below 0.125 µM with GBM0308 CSCs (Homo sapiens, read-out: CSC EC50, text, GBM0308 CSCs).

`C#CCNS(=O)(=O)NC(=O)[C@H]1[C@@H](O)[C@@]2(O)c3c(OC)cc(OC)cc3O[C@@]2(c2ccc(Br)cc2)[C@@H]1c1ccccc1` [(−)-21, (1R,2R,3S,3aR,8bS)-3a-(4-bromophenyl)-1,8b-dihydroxy-6,8-dimethoxy-3-phenyl-N—(N-(prop-2-yn-1-yl)sulfamoyl)-2,3,3a,8b-tetrahydro-1H-cyclopenta[b]benzofuran-2-carboxamide]: the Emax in the series on GBM0308 non-CSCs (setting [10]) is 27%; with GBM0308 CSCs (setting [12]) it was 92%. Moreover, the EC50 with GBM0308 CSCs (setting [11]) is 0.016 µM.

Take `COc1cc(OC)c2c(c1)O[C@@]1(c3ccc(Br)cc3)[C@H](c3ccccc3)[C@@H](C(=O)NS(=O)(=O)N(C)C)[C@@H](O)[C@@]21O` [BUCMD790 (—), (1R,2R,3S,3aR,8bS)-3a-(4-bromophenyl)-N-(N,N-dimethylsulfamoyl)-1,8b-dihydroxy-6,8-dimethoxy-3-phenyl-2,3,3a,8b-tetrahydro-1H-cyclopenta[b]benzofuran-2-carboxamide]: the Emax in the series with GBM0308 non-CSCs (setting [1]) worked out at 26%; with GBM0308 CSCs (setting [2]), 93%. Moreover, the EC50 in the series on GBM0308 CSCs (setting [3]) worked out at 0.045 µM.

For the molecule `COc1cc(OC)c2c(c1)O[C@@]1(c3ccc(C(F)(F)F)cc3)[C@H](c3ccccc3)[C@@H](C(=O)NS(=O)(=O)N(C)C)[C@@H](O)[C@@]21O` [ZW-12-29, (1R,2R,3S,3aR,8bS)—N—(N,N-dimethylsulfamoyl)-1,8b-dihydroxy-6,8-dimethoxy-3-phenyl-3a-(4-(trifluoromethyl)phenyl)-2,3,3a,8b-tetrahydro-1H-cyclopenta[b]benzofuran-2-carboxamide], the Emax was determined as 26% in the series with GBM0308 non-CSCs (setting [14]) and 57% in the series on GBM0308 CSCs (setting [15]). Besides, in the series on GBM0308 CSCs (setting [16]), the EC50 turned out to be 5.63 µM.

As for `COc1cc(OC)c2c(c1)O[C@@]1(c3ccc(C#N)cc3)[C@H](c3ccccc3)[C@@H](C(=O)NS(=O)(=O)N(C)C)[C@@H](O)[C@@]21O` [ZW-12-30, (1R,2R,3S,3aR,8bS)-3a-(4-cyanophenyl)-N—(N,N-dimethylsulfamoyl)-1,8b-dihydroxy-6,8-dimethoxy-3-phenyl-2,3,3a,8b-tetrahydro-1H-cyclopenta[b]benzofuran-2-carboxamide], the Emax with GBM0308 non-CSCs (setting [14]) was found to be 21%; in the series with GBM0308 CSCs (setting [15]), 94%. For the same molecule, in the series with GBM0308 CSCs (setting [16]), the EC50 stood at 0.632 µM.
